Among the data in PubChem BioAssay (NCI) are TGI and GI50 values, retold here.

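Interpolation was linear, between the two tested concentrations surrounding the appropriate level; five concentrations were tested over 48 hours in 96-well plates. Here, GI50 denotes the concentration required for 50% inhibition of growth. Definition used: TGI = concentration required for complete inhibition of growth.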

Test systems include SF-539 CNS; COLO 205 colon; NCI-H23 lung; OVCAR-3 ovarian; CCRF-CEM leukemia; IGROV1 ovarian; HOP-62 NSCLC; SF-295 CNS; SK-OV-3 ovarian; NCI-H522 lung.
Common to all, as to assay: NCI-60 cell line screen, 48 h

With `CC1CCc2c(c(CC3CC(=O)NC(=O)C3)nn2-c2ccccc2)C1` (centres undefined), the TGI with SF-539 CNS, with COLO 205 colon, in the test on NCI-H23 lung, in the test on OVCAR-3 ovarian, in the test with CCRF-CEM leukemia and in the test with IGROV1 ovarian was greater than 100 µM in each case. Also, the TGI with HOP-62 NSCLC, with SF-295 CNS and with SK-OV-3 ovarian was greater than 100 µM in each case.

With `C/C(CCn1[nH]c(=O)ccc1=O)=N\Nc1ccc([N+](=O)[O-])cc1[N+](=O)[O-]`, the TGI with SF-539 CNS, in the test with NCI-H23 lung, in the test on OVCAR-3 ovarian, with CCRF-CEM leukemia, in the test with IGROV1 ovarian and in the test with HOP-62 NSCLC was greater than 100 µM each time. In the test on SF-295 CNS, this molecule gave a TGI greater than 100 µM.

On to `CCOC(=O)c1c2cccccc2n2c(=O)cc(C)nc12`, for which the TGI in the test on SF-539 CNS, with COLO 205 colon, in the test with NCI-H23 lung, in the test on OVCAR-3 ovarian, in the test on CCRF-CEM leukemia and in the test on IGROV1 ovarian was greater than 100 µM throughout. For the same molecule, the TGI in the test on HOP-62 NSCLC, with SF-295 CNS and in the test with NCI-H522 lung was greater than 100 µM in each case.

For the molecule `Cc1cc(C)nc(NS(=O)(=O)c2ccc(NC(=O)c3ccc(Cl)c4c(Nc5ccc(S(=O)(=O)N=C(N)N)cc5)c5ccccc5nc34)cc2)n1`, the TGI in the test with SF-539 CNS was greater than 100 µM; in the test on COLO 205 colon, greater than 100 µM; in the test with NCI-H23 lung, 17.5 µM; with OVCAR-3 ovarian it was greater than 100 µM; in the test on IGROV1 ovarian, greater than 100 µM; in the test on HOP-62 NSCLC, greater than 100 µM. The TGI with SF-295 CNS was greater than 100 µM; in the test on NCI-H522 lung, 36.1 µM; in the test on SK-OV-3 ovarian, greater than 100 µM.

In the case of `COC(=O)C1=C(O)[C@H](C(=O)OC)[C@]2(O)[C@@H](C(=O)OC)[C@H]1C[C@@H](c1ccc(OC(=O)/C=C/c3ccco3)cc1)[C@@H]2C(=O)OC`, the GI50 was 15 µM in the test on COLO 205 colon, 27.6 µM with OVCAR-3 ovarian, 15.7 µM in the test with HOP-62 NSCLC and 19.6 µM with SF-295 CNS. Besides, the TGI is 87.9 µM in the test on COLO 205 colon, 82.5 µM with OVCAR-3 ovarian, 30.5 µM in the test on HOP-62 NSCLC and 65.2 µM with SF-295 CNS.

For `COc1cc(/C=C\c2ccc(OC(C)=O)cc2)cc(OC)c1OC`, the TGI with COLO 205 colon is 94.2 µM; in the test on NCI-H23 lung, 13.2 µM; in the test with OVCAR-3 ovarian, greater than 100 µM; in the test on CCRF-CEM leukemia, greater than 100 µM; in the test with IGROV1 ovarian it was greater than 100 µM; with HOP-62 NSCLC, greater than 100 µM. For the same molecule, the TGI in the test with NCI-H522 lung and with SK-OV-3 ovarian was greater than 100 µM throughout.

Regarding `O=C1[C@H](Cl)[C@H]2c3cc4ccccc4nc3Oc3ccccc3N12`, the TGI in the test with COLO 205 colon, with NCI-H23 lung, with OVCAR-3 ovarian, in the test on CCRF-CEM leukemia, in the test on IGROV1 ovarian and in the test with HOP-62 NSCLC was greater than 100 µM throughout. For the same molecule, the results for the TGI in the test with SF-295 CNS, in the test with NCI-H522 lung and in the test on SK-OV-3 ovarian were greater than 100 µM, 88 µM and greater than 100 µM, respectively.

Take `CO[C@@H]1[C@H]2[C@@H](C)c3ccoc3C[C@@H]2[C@@]2(C)CC[C@H](OC(=O)c3ccccc3)[C@](C)(C(=O)O)[C@]2(O)[C@@H]1OC(=O)c1ccccc1`: the GI50 was 8.81 µM in the test with SF-539 CNS; 7.34 µM with COLO 205 colon; 10.6 µM in the test on NCI-H23 lung; 5.17 µM in the test with OVCAR-3 ovarian; 22.7 µM in the test with CCRF-CEM leukemia; greater than 50 µM in the test with IGROV1 ovarian. The GI50 was 10.3 µM in the test with SF-295 CNS and 34.9 µM in the test with NCI-H522 lung. The TGI is 16.5 µM in the test with SF-539 CNS; 15.2 µM in the test on COLO 205 colon; 28.5 µM in the test on NCI-H23 lung; 15.9 µM in the test with OVCAR-3 ovarian; greater than 50 µM in the test with CCRF-CEM leukemia; greater than 50 µM with IGROV1 ovarian. Also, the values for the TGI with SF-295 CNS and with NCI-H522 lung were 41.4 µM and greater than 50 µM, respectively.

Consider `CC(=O)O/N=C(Cl)/C(Cl)=N/OC(C)=O`, for which the TGI in the test on SF-539 CNS, in the test on NCI-H23 lung, in the test on CCRF-CEM leukemia, in the test with IGROV1 ovarian, in the test with HOP-62 NSCLC and with SF-295 CNS was greater than 100 µM each time. Also, the TGI with NCI-H522 lung and with SK-OV-3 ovarian was greater than 100 µM throughout.

With `OC1CCC[C@@H]1Sc1ccccc1` (some centres undefined), the TGI in the test with SF-539 CNS, in the test with COLO 205 colon, in the test with NCI-H23 lung, in the test with OVCAR-3 ovarian, in the test on CCRF-CEM leukemia and in the test on HOP-62 NSCLC was greater than 100 µM in each case. The TGI in the test on SF-295 CNS and in the test on SK-OV-3 ovarian was greater than 100 µM in each case.

For `O=C1NC(S(=O)(=O)O)=NNC12c1ccccc1-c1ccccc12`, the TGI in the test with SF-539 CNS, in the test with COLO 205 colon, in the test on NCI-H23 lung, in the test with CCRF-CEM leukemia, in the test with IGROV1 ovarian and with HOP-62 NSCLC was greater than 10 µM throughout. Also, the TGI in the test on SF-295 CNS, in the test with NCI-H522 lung and in the test on SK-OV-3 ovarian was greater than 10 µM each time.

As for `NNC(=O)N/N=C1\C(=O)N(c2nccs2)C(=O)C(=O)C1c1nc2ccccc2s1` (centres undefined), the TGI in the test on SF-539 CNS, in the test on COLO 205 colon, in the test on NCI-H23 lung, with OVCAR-3 ovarian, in the test on IGROV1 ovarian and in the test on HOP-62 NSCLC was greater than 100 µM throughout. Further, the TGI in the test with SF-295 CNS and in the test with SK-OV-3 ovarian was greater than 100 µM each time.

As to `O=C(Nc1cccnc1)c1ccc2ccc3ccc(C(=O)Nc4cccnc4)nc3c2n1`, the GI50 in the test on COLO 205 colon is 0.135 µM; in the test on NCI-H23 lung, 0.202 µM; in the test with OVCAR-3 ovarian it was 0.242 µM; in the test on CCRF-CEM leukemia, 0.169 µM; in the test with IGROV1 ovarian, 0.125 µM; in the test with HOP-62 NSCLC, 0.13 µM. Moreover, the GI50 in the test with SF-295 CNS was 0.252 µM; in the test on NCI-H522 lung, 0.525 µM. Besides, the TGI in the test with COLO 205 colon, in the test with NCI-H23 lung, with OVCAR-3 ovarian, with CCRF-CEM leukemia, in the test with IGROV1 ovarian and with HOP-62 NSCLC was greater than 100 µM throughout. In addition, the TGI in the test with SF-295 CNS and with NCI-H522 lung was greater than 100 µM throughout.
